The conditions of data set [1]: cited from earlier work.
Data set [2] is described as follows: in vivo monitoring of radiolabeled analyte uptake in tissue with subcutaneous fiber optic beta radiation probes.
Description: The labeled glucose can be injected into the tail vein of test animals (such as rats) in a single bolus.
FIG. 11A illustrates a response profile graph (an integrated counts (above threshold) over time profile) taken over a monitored time period of about 85 minutes (study #2). The counts were taken on a thirty seconds/sample count time frame. In this experiment, a fiber optic probe was positioned subcutaneously in “normal” or non-cancerous tissue in the back of a Fisher 344 rat. A dose of 50 μCi of ^14C-2DG was injected in the tail vein. The data was monitored for about 85 minutes. […] The initial portion of the graph has values that represent “baseline” or dark current.
FIGS. 11B-11C illustrate graphs of data obtained using two probes, each placed subcutaneously in normal tissue of a 190 gram female Fisher 344 rat, one placed in the flank/inguinal and the other in the scapula (study #4). […] In this experiment, a bolus of 200 μCi of ^14C 2-DG was administered via intra-peritoneal (IP) injection. The data was monitored for about 96 minutes.

Take `O=c1[nH]cc(F)c(=O)[nH]1` [5-FU, 5-Fluorouracil]: in data set [1] (PET with O-15 labeled water and 5-[F-18]FU), the “lesions in which enhanced trapping was noted” value is 70%.

In the case of `O=c1[nH]cc([18F])c(=O)[nH]1` [5-[F-18]FU], the “liver parenchyma uptake at the end of the acquisition time, relative to the maximum” value in data set [1] (PET, 120-minute acquisition time) was 25%. Moreover, the “uptake in the metastases” value in data set [1] (PET, during the 120-minute acquisition time) was “low and relatively constant”. For the same molecule, the “mean uptake in metastases relative to liver uptake at the same time interval” value in data set [1] (PET, liver metastases) is given as “one-third”. Also, the “time of highest uptake in normal liver parenchyma after onset of the infusion of the tracer” value in data set [1] (PET, normal liver parenchyma) is “about 30 minutes”.

On to C-14 labeled 2-deoxyglucose [^14C-2DG], for which the “time from injection at which counts reached a plateau” value in data set [2] (50 μCi injected in tail vein, probe subcutaneous in normal tissue in back of Fisher 344 rat, study #2, FIG. 11A) is reported as “about 10 minutes”. Moreover, in data set [2] (200 μCi bolus intra-peritoneal, two probes subcutaneous in normal tissue, 190 gram female Fisher 344 rat, monitored about 96 minutes, study #4, FIG. 11B), the “concentration in scapula region compared to flank region” value is “higher concentrations were obtained in the scapula region compared to the flank region”. Further, in data set [2] (200 μCi intra-peritoneal, flank/inguinal normal tissue probe, study #4, FIG. 11C), the “time range in which peak or maxima point of concentration is reached (observed points)” value was 20 to 50 min.

The values are drawn from patent publication US7011814B2, “Systems, methods and devices for in vivo monitoring of a localized response via a radiolabeled analyte in a subject” (Sicel Technologies, Inc., priority 2001, dated 2006).
